From BindingDB's records for doi:10.1021/jm00077a015 (Universität Regensburg, 1994)

Molecular target: lipid peroxidation in brain phospholipid liposomes (Bos taurus)
Experiment: Tested for the inhibition of lipid peroxidation in bovine brain phospholipid liposomes

SMILES	IC50 [µM]
O=C1c2c(O)cccc2C(=Cc2cc(O)c(O)c(O)c2)c2cccc(O)c21 [1,8-Dihydroxy-10-(3,4,5-trihydroxy-benzylidene)-10H-anthracen-9-one]	2
O=C1c2c(O)cccc2C(=Cc2ccc([N+](=O)[O-])cc2)c2cccc(O)c21 [1,8-dihydroxy-10-(4-nitrobenzylidene)anthracen-9(10H)-one]	14
O=C1c2c(O)cccc2C(=Cc2ccc(O)c(O)c2)c2cccc(O)c21 [10-(3,4-dihydroxybenzylidene)-1,8-dihydroxyanthracen-9(10H)-one]	2
CCCC(=O)C1c2cccc(O)c2C(=O)c2c(O)cccc21 [10-Butyryl-1,8-dihydroxy-10H-anthracen-9-one(Butantrone)]	4
O=C1c2c(O)cccc2C(=Cc2ccccc2)c2cccc(O)c21 [10-benzylidene-1,8-dihydroxyanthracen-9(10H)-one]	8

The remaining compounds from weak to strong by IC50, led by results:

IC50 [µM]	SMILES
8	O=C1c2c(O)cccc2C(=Cc2ccc(O)cc2)c2cccc(O)c21 [1,8-Dihydroxy-10-(4-hydroxy-benzylidene)-10H-anthracen-9-one]
1	O=C1c2c(O)cccc2C(C(=O)Cc2ccc(O)c(O)c2)c2cccc(O)c21 [10-[2-(3,4-Dihydroxy-phenyl)-acetyl]-1,8-dihydroxy-10H-anthracen-9-one]
